Laboratory results taken from patent publication US20220194983A1, “PEPTIDE LIGANDS FOR BINDING TO PSMA” (BicycleTx Limited, priority 2018, published 2022).
Several values for one entry are separate records, joined by “and”; a condition that tells them apart may be missing. Equal entries are not always repeated.

Molecular target: PSMA (Homo sapiens, UniProt Q04609)
Test: measured PSMA affinities (ka, kd, KD) of Dap(Me) substituted bicycles, Table 1
Type: binding
Details: for ka: association rate; for kd: dissociation rate

Sequence of PSMA (Q04609 whole entry): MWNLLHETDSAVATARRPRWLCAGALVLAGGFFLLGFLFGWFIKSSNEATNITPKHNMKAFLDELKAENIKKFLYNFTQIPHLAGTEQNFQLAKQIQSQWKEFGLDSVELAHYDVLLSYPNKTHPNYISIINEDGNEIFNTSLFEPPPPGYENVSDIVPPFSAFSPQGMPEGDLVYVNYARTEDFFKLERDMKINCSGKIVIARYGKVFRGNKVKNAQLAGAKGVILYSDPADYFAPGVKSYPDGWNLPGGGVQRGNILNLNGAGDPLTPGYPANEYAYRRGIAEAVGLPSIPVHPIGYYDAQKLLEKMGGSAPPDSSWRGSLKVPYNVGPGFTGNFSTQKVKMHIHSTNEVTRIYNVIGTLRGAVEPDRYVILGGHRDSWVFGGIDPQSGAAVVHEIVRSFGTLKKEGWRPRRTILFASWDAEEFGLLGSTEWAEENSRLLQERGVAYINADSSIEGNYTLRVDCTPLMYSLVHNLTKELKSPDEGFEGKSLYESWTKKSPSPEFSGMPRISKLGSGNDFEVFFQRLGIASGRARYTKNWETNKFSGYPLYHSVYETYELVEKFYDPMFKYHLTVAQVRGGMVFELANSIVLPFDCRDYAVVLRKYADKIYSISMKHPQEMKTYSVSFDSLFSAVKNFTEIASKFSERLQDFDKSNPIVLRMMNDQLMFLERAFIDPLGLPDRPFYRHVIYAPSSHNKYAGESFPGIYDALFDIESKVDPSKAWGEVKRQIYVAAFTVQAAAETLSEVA

Substance	ka	kd
[Ac][Gla]V[Dap(Me)]WDCF[Nle][Nle]EDGT[Dap(Me)]A [BCY00009312]	1.01E+05 M1s1 and 7.35E+04 M1s1	7.77E−03 s1 and 1.21E−02 s1
[Ac][dE]V[Dap(Me)]KDCF[Nle][Nle]EDGT[Dap(Me)]A [BCY00009314]	3.79E+04 M1s1	3.86E−02 s1
[Ac][dE]V[Dap(Me)]WDCFL[Nle]EDGT[Dap(Me)]A [BCY00009306]	9.04E+04 M1s1	1.97E−02 s1
[Ac][dE]V[Dap(Me)]WDCFY[Nle]EDGT[Dap(Me)]A [BCY00009308]	8.73E+04 M1s1	2.88E−02 s1
[Ac][dE]V[Dap(Me)]WDCF[Hse(Me)][Nle]EDGT[Dap(Me)]A [BCY00009305]	4.32E+04 M1s1	5.35E−02 s1
[Ac][dE]V[Dap(Me)]WDCF[Nle]LEDGT[Dap(Me)]A [BCY00009310]	5.93E+04 M1s1	4.32E−02 s1
[Ac][dE]V[Dap(Me)]WDCF[Nle][Hse(Me)]EDGT[Dap(Me)]A [BCY00009309]	5.17E+04 M1s1	2.93E−01 s1
[Ac][dE]V[Dap(Me)]WDCF[Nle][Nle]EDGT[Dap(Me)]A [BCY00009300]	7.04E+04 M1s1	1.02E−02 s1
[Ac][dE]V[Dap(Me)]WDCF[Nle][tBuAla]EDGT[Dap(Me)]A [BCY00009311]	2.51E+04 M1s1	3.10E−03 s1
[Ac][dE]V[Dap(Me)]WDCF[tBuAla][Nle]EDGT[Dap(Me)]A [BCY00009307]	6.71E+04 M1s1	3.26E−02 s1
[Ac][dE]V[Dap(Me)]WDCK[Nle][Nle]EDGT[Dap(Me)]A [BCY00009315]	2.81E+04 M1s1	4.62E−02 s1
[Ac][dE]V[Dap(Me)]WDCY[Nle][Nle]EDGT[Dap(Me)]A [BCY00009304]	1.03E+05 M1s1	1.24E−02 s1
[Ac][dE]V[Dap(Me)][2Nal]DCF[Nle][Nle]EDGT[Dap(Me)]A [BCY00009303]	8.74E+04 M1s1	1.86E−02 s1
[Glutarate][dE]V[Dap(Me)]WDCF[Nle][Nle]EDGT[Dap(Me)]A [BCY00009313]	1.24E+05 M1s1	9.81E−03 s1
